The test system of one data set is MCF-10A cells. Put plainly: MTT cytotoxicity assay, MCF-10A control cells. The conditions noted are these: Homo sapiens, 72 h. Type of data set: cell-based, human. The method, then: (§1) All tested compounds were dissolved in DMSO at 25 mM initial concentration and diluted with medium to obtain the working concentrations (0.01 nM–250 µM). Serial drug dilutions were prepared in medium immediately before each experiment. The DMSO working concentration in the medium was […]. For the MTT assay, cells were seeded into 96-well microtitre plates at a density of 1 × 10^4 in 100 µL complete medium per well. They were further incubated for 24 h, followed by treatment with CA-4 analogs up to 72 h. Cell viability was determined using the MTT assay. Ten µL of MTT solution (5 mg/mL) was added to each well and further incubated for 3 h at 37 °C. To dissolve the formazan product, 100 µL/well of 99.5% isopropanol was added. Cell viability was determined by measuring absorbance at 550/630 nm using a DTX880 plate reader (Beckman Coulter, USA). Results, expressed as concentrations that inhibit 20% (IC20), 50% (IC50), and 80% (IC80) of cell growth, were calculated using GraphPad Prism 8.0.1.
(§2) Table S 3.1. Description of eukaryotic cell lines used for MTT assay.
(§3) Panel Cell line Origin Tissue, characteristics Source Culture conditions […]
(§4) (h) lung carcinoma ATCC, CCL-185 U/mL penicillin, 100 […]
(§5) lung, bronchus; insulin, rhEGF, GA-BEAS-2B h epithelial virus ATCC, CRL- 1000, BPE, transformed 9609 transferrin,
(§6) HT-29 h colon, colorectal Radostina adenocarcinoma Alexandrova 3.1 g/L D-Glucose […]

For another data set, the system named is Colon-26 cells. Put plainly: MTT cytotoxicity assay, Colon-26. It is filed as cell-based. The following applies: Mus musculus, 72 h. Here is the method: as §1, §2, §3, §4, §5, §6
In general terms: Tetrazolium assays rely on reduction of a dye to a coloured formazan, in cell work by metabolically active cells.

For the next data set, the system named is A549 cells. The data set is described as follows: MTT cytotoxicity assay, A549. The following applies: Homo sapiens, 72 h. Type of data set: cell-based. Here is the method: as §1, §2
Panel Cell line Origin Tissue, characteristics Source Culture conditions
(h) lung carcinoma ATCC, CCL-185 U/mL penicillin, 100
lung, bronchus; insulin, rhEGF, GA- […]
Colon BAS) 10% (v/v) FBS, 100

A short description of data set [1]: MTT cytotoxicity assay, MCF-10A control cells. The conditions noted are these: human, read-out: Cytostatic activity (% viable cells). It is filed as cell-based, human. Here is the method: as §1, §2, §3, §4, §5, §6

For the molecule `COc1ccc(/C=C\c2cc(OC)c(OC)c(OC)c2)cc1O` [CA-4, Combretastatin A-4], the values for the half-inhibitory concentration (IC50) in the data set with MCF-10A cells, in the data set on Colon-26 cells and with A549 cells were 1.64 ± 0.34 µM, 0.66 ± 0.082 µM and 3.01 ± 0.16 µM, respectively.

In the case of `COc1cc(/C=C\c2ccc3c(c2)sc(=O)n3C)cc(OC)c1OC` [Compound 26Z, (Z)-3-methyl-6-(3,4,5-trimethoxystyryl)-2(3H)-benzothiazolone], in data set [1], the viability at 72 h worked out at 65%.

As usually defined, the IC50 is the concentration at which inhibition is half-maximal. A low value points to greater potency.
